According to patent US20210254272A1, “TEXTILES HAVING ANTIMICROBIAL PROPERTIES” (Livinguard AG, priority 2015, published 2021):

Tested on: E. coli (ATCC 25922)
Experiment: AATCC Test Method 100-2012 antibacterial activity of the treated textile, after 25 washes and 12 abrasion cycles, contact time 60 minutes
Format: cell-based
Settings: for Performance Test-Log reduction of antimicrobial performance: pad process, 2 min
Experimental: The antibacterial activity of the textile was tested in accordance with AATCC Test Method 100-2012. Prior to the test, the fabric was cut into coupons of 2×4 inches and washed separately 25 times, and exposed to 12 abrasion cycles, as per US EPA protocol 90072PA4 (described further below). The tests were made against E. coli (ATCC 25922). Contact time was 60 minutes, after inoculating with 10^8 CFU per coupon.

CCCC1COC(Cn2cncn2)(c2ccc(Cl)cc2Cl)O1 (stereo not shown) [Propiconazole, propiconazole]
Performance Test-Log reduction of antimicrobial performance (single agent 5 gm/lit, curing 180° C.): 0.98 Log
Performance Test-Log reduction of antimicrobial performance (single agent 10 gm/lit, curing 120° C.): 0.25 Log
Performance Test-Log reduction of antimicrobial performance (single agent 10 gm/lit, curing 140° C.): 0.38 Log
Performance Test-Log reduction of antimicrobial performance (single agent 10 gm/lit, curing 150° C.): 0.42 Log
Performance Test-Log reduction of antimicrobial performance (single agent 10 gm/lit, curing 160° C.): 0.56 Log
Performance Test-Log reduction of antimicrobial performance (single agent 10 gm/lit, curing 180° C.): 2.11 Log
Log reduction of antimicrobial performance (pure cotton fabric, exhaust 80° C., 60 min, dosage 0.1% o.w.f): 0.63 Log
Log reduction of antimicrobial performance (pure cotton fabric, exhaust 80° C., 60 min, dosage 0.2% o.w.f): 1.45 Log
Log reduction of antimicrobial performance (pure cotton fabric, exhaust 80° C., 60 min, dosage 0.5% o.w.f): 1.95 Log
Log reduction of antimicrobial performance (pure cotton fabric, exhaust 80° C., 60 min, dosage 0.8% o.w.f): 2.34 Log
Log reduction of antimicrobial performance (pure cotton fabric, exhaust 80° C., 60 min, dosage 1.0% o.w.f): 2.85 Log
Log reduction of antimicrobial performance (pure cotton, exhaust 80° C., 1% o.w.f, 60 min, curing 180° C., curing dwell time 0.5 min): 0.4 Log
Log reduction of antimicrobial performance (pure cotton, exhaust 80° C., 1% o.w.f, 60 min, curing 180° C., curing dwell time 1.0 min): 0.8 Log
Log reduction of antimicrobial performance (pure cotton, exhaust 80° C., 1% o.w.f, 60 min, curing 180° C., curing dwell time 1.5 min): 2.2 Log
Log reduction of antimicrobial performance (pure cotton, exhaust 80° C., 1% o.w.f, 60 min, curing 180° C., curing dwell time 2.0 min): 2.8 Log
Log reduction of antimicrobial performance (pure cotton, exhaust 80° C., 1% o.w.f, 60 min, curing 180° C., curing dwell time 2.5 min): 2.3 Log
Log reduction of antimicrobial performance (pure cotton, exhaust 80° C., 1% o.w.f, 60 min, curing 180° C., curing dwell time 3.0 min): 1.2 Log
Log reduction of antimicrobial performance (pure polyester fabric, exhaust 80° C., 60 min, curing 180° C., curing dwell time 0.5 min): 0.4 Log
Log reduction of antimicrobial performance (pure polyester fabric, exhaust 80° C., 60 min, curing 180° C., curing dwell time 1.0 min): 0.8 Log
Log reduction of antimicrobial performance (pure polyester fabric, exhaust 80° C., 60 min, curing 180° C., curing dwell time 1.5 min): 2.2 Log
Log reduction of antimicrobial performance (pure polyester fabric, exhaust 80° C., 60 min, curing 180° C., curing dwell time 2.0 min): 2.74 Log
Log reduction of antimicrobial performance (pure polyester fabric, exhaust 80° C., 60 min, curing 180° C., curing dwell time 2.5 min): 2.35 Log
Log reduction of antimicrobial performance (pure polyester fabric, exhaust 80° C., 60 min, curing 180° C., curing dwell time 3.0 min): 1.2 Log
Log reduction of antimicrobial performance (pure polyester fabric, exhaust 80° C., 60 min, dosage 0.1% o.w.f): 0.57 Log
Log reduction of antimicrobial performance (pure polyester fabric, exhaust 80° C., 60 min, dosage 0.2% o.w.f): 1.35 Log
Log reduction of antimicrobial performance (pure polyester fabric, exhaust 80° C., 60 min, dosage 0.5% o.w.f): 1.67 Log
Log reduction of antimicrobial performance (pure polyester fabric, exhaust 80° C., 60 min, dosage 0.8% o.w.f): 2.14 Log
Log reduction of antimicrobial performance (pure polyester fabric, exhaust 80° C., 60 min, dosage 1.0% o.w.f): 2.73 Log
Log reduction of antimicrobial performance (solution dosage 0.10% o.w.f, exhaust temperature 40° C., process time 60 min): 0 Log
Log reduction of antimicrobial performance (solution dosage 0.10% o.w.f, exhaust temperature 60° C., process time 60 min): 0 Log
Log reduction of antimicrobial performance (solution dosage 0.10% o.w.f, exhaust temperature 65° C., process time 60 min): 0 Log
Log reduction of antimicrobial performance (solution dosage 0.10% o.w.f, exhaust temperature 70° C., process time 60 min): 0 Log
Log reduction of antimicrobial performance (solution dosage 0.10% o.w.f, exhaust temperature 75° C., process time 60 min): 0.59 Log
Log reduction of antimicrobial performance (solution dosage 0.10% o.w.f, exhaust temperature 80° C., process time 60 min): 0.56 Log
Log reduction of antimicrobial performance (solution dosage 0.10% o.w.f, exhaust temperature 85° C., process time 60 min): 0.83 Log
Log reduction of antimicrobial performance (solution dosage 0.10% o.w.f, exhaust temperature 90° C., process time 60 min): 0.83 Log
Log reduction of antimicrobial performance (solution dosage 0.10% o.w.f, exhaust temperature 95° C., process time 60 min): 0.83 Log
Log reduction of antimicrobial performance (solution dosage 0.20% o.w.f, exhaust temperature 40° C., process time 60 min): 0 Log
Log reduction of antimicrobial performance (solution dosage 0.20% o.w.f, exhaust temperature 60° C., process time 60 min): 0.08 Log
Log reduction of antimicrobial performance (solution dosage 0.20% o.w.f, exhaust temperature 65° C., process time 60 min): 0.09 Log
Log reduction of antimicrobial performance (solution dosage 0.20% o.w.f, exhaust temperature 70° C., process time 60 min): 0.12 Log
Log reduction of antimicrobial performance (solution dosage 0.20% o.w.f, exhaust temperature 75° C., process time 60 min): 0.89 Log
Log reduction of antimicrobial performance (solution dosage 0.20% o.w.f, exhaust temperature 80° C., process time 60 min): 1.34 Log
Log reduction of antimicrobial performance (solution dosage 0.20% o.w.f, exhaust temperature 85° C., process time 60 min): 1.45 Log
Log reduction of antimicrobial performance (solution dosage 0.20% o.w.f, exhaust temperature 90° C., process time 60 min): 1.45 Log
Log reduction of antimicrobial performance (solution dosage 0.20% o.w.f, exhaust temperature 95° C., process time 60 min): 1.45 Log
Log reduction of antimicrobial performance (solution dosage 0.50% o.w.f, exhaust temperature 40° C., process time 60 min): 0 Log
Log reduction of antimicrobial performance (solution dosage 0.50% o.w.f, exhaust temperature 60° C., process time 60 min): 0.12 Log
Log reduction of antimicrobial performance (solution dosage 0.50% o.w.f, exhaust temperature 65° C., process time 60 min): 0.13 Log
Log reduction of antimicrobial performance (solution dosage 0.50% o.w.f, exhaust temperature 70° C., process time 60 min): 0.19 Log
Log reduction of antimicrobial performance (solution dosage 0.50% o.w.f, exhaust temperature 75° C., process time 60 min): 1.12 Log
Log reduction of antimicrobial performance (solution dosage 0.50% o.w.f, exhaust temperature 80° C., process time 60 min): 1.98 Log
Log reduction of antimicrobial performance (solution dosage 0.50% o.w.f, exhaust temperature 85° C., process time 60 min): 2.04 Log
Log reduction of antimicrobial performance (solution dosage 0.50% o.w.f, exhaust temperature 90° C., process time 60 min): 2.06 Log
Log reduction of antimicrobial performance (solution dosage 0.50% o.w.f, exhaust temperature 95° C., process time 60 min): 2.06 Log
Log reduction of antimicrobial performance (solution dosage 0.80% o.w.f, exhaust temperature 40° C., process time 60 min): 0 Log
Log reduction of antimicrobial performance (solution dosage 0.80% o.w.f, exhaust temperature 60° C., process time 60 min): 0.18 Log
Log reduction of antimicrobial performance (solution dosage 0.80% o.w.f, exhaust temperature 65° C., process time 60 min): 0.19 Log
Log reduction of antimicrobial performance (solution dosage 0.80% o.w.f, exhaust temperature 70° C., process time 60 min): 0.23 Log
Log reduction of antimicrobial performance (solution dosage 0.80% o.w.f, exhaust temperature 75° C., process time 60 min): 1.35 Log
Log reduction of antimicrobial performance (solution dosage 0.80% o.w.f, exhaust temperature 80° C., process time 60 min): 2.34 Log
Log reduction of antimicrobial performance (solution dosage 0.80% o.w.f, exhaust temperature 85° C., process time 60 min): 2.56 Log
Log reduction of antimicrobial performance (solution dosage 0.80% o.w.f, exhaust temperature 90° C., process time 60 min): 2.61 Log
Log reduction of antimicrobial performance (solution dosage 0.80% o.w.f, exhaust temperature 95° C., process time 60 min): 2.61 Log
Log reduction of antimicrobial performance (solution dosage 1.00% o.w.f, exhaust temperature 40° C., process time 60 min): 0 Log
Log reduction of antimicrobial performance (solution dosage 1.00% o.w.f, exhaust temperature 60° C., process time 60 min): 0.25 Log
Log reduction of antimicrobial performance (solution dosage 1.00% o.w.f, exhaust temperature 65° C., process time 60 min): 0.26 Log
Log reduction of antimicrobial performance (solution dosage 1.00% o.w.f, exhaust temperature 70° C., process time 60 min): 0.32 Log
Log reduction of antimicrobial performance (solution dosage 1.00% o.w.f, exhaust temperature 75° C., process time 60 min): 1.42 Log
Log reduction of antimicrobial performance (solution dosage 1.00% o.w.f, exhaust temperature 80° C., process time 60 min): 2.87 Log
Log reduction of antimicrobial performance (solution dosage 1.00% o.w.f, exhaust temperature 85° C., process time 60 min): 2.89 Log
Log reduction of antimicrobial performance (solution dosage 1.00% o.w.f, exhaust temperature 90° C., process time 60 min): 2.91 Log
Log reduction of antimicrobial performance (solution dosage 1.00% o.w.f, exhaust temperature 95° C., process time 60 min): 2.91 Log
